A word on the GI50: it is the concentration giving 50% growth inhibition. By pIC50 is commonly meant the negative decadic logarithm of the IC50, by convention in mol/L. Higher therefore signals a small IC50.

Data on seven molecules can be found in ChEMBL document CHEMBL1156950, “Synthesis and biological evaluation of 4-anilinoquinolines as potent inhibitors of epidermal growth factor receptor” (J Med Chem, 2010).

Experiment [1] can be described thus: cells. Particulars: Mus musculus, BaF3, 96 h.
Description: Growth inhibition of mouse BA/F3 cells expressing EGFR Del3 mutant after 96 hrs by cell titer-glo assay
Experiment [2] is described as follows: cells. Particulars: Mus musculus, BaF3, 96 h. The source holds these as a separate data set.
Experiment [3] can be described thus: cells. Conditions: Mus musculus, BaF3, 96 h. This is another data set of the same source.
Description: Growth inhibition of mouse BA/F3 cells expressing EGFR Del3 and Thr790Met mutant after 96 hrs by cell titer-glo assay
Experiment [4] is described as follows: cells. Particulars: Mus musculus, BaF3, 96 h. This is another data set of the same source.
Description: Growth inhibition of mouse BA/F3 cells expressing EGFR Del1 mutant after 96 hrs by cell titer-glo assay
Experiment [5] concerns the target T1, Epidermal growth factor receptor (Homo sapiens, UniProt P00533). The experiment in a line: Inhibition of wild type EGFR by HTRF assay.
In experiment [6] the target is Epidermal growth factor receptor (Homo sapiens, UniProt P00533, L858R/T790M). Put plainly: Inhibition of EGFR Leu858Arg and Thr790Met mutant by HTRF assay. In kind it is protein assay.
Sequence of Epidermal growth factor receptor (Homo sapiens, UniProt P00533, L858R/T790M) (P00533 25-1210 T790M/L858R limits assumed): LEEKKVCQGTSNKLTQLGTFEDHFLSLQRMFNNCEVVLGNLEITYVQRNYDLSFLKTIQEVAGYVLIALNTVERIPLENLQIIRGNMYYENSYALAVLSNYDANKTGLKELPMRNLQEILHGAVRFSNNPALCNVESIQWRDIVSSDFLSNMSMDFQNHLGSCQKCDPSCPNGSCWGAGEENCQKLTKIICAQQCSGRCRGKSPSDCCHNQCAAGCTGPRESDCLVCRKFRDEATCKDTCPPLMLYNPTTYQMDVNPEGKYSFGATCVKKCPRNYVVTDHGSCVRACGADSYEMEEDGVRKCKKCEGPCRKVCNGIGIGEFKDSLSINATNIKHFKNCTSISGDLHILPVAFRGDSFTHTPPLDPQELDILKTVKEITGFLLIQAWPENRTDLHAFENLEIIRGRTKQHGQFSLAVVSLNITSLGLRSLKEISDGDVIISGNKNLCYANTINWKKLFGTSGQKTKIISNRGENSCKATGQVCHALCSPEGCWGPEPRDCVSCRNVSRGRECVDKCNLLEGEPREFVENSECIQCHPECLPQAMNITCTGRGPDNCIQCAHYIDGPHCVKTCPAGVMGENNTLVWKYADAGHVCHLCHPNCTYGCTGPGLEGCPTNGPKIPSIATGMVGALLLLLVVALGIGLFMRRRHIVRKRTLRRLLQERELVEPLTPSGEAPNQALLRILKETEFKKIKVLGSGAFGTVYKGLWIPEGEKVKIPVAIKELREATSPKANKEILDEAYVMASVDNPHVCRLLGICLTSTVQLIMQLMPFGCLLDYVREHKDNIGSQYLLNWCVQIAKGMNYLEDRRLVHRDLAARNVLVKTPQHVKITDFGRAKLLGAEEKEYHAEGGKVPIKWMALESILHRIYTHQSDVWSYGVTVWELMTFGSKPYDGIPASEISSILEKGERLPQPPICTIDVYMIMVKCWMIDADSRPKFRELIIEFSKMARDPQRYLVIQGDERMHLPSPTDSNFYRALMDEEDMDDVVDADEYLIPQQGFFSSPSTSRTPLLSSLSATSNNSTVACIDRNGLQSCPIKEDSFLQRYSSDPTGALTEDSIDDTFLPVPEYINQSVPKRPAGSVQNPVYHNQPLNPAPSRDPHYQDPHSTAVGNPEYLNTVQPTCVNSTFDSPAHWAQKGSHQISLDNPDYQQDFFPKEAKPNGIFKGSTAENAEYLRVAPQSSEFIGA
The nature of experiment [7]: cells. Particulars: Mus musculus, BaF3, 96 h. This is another data set of the same source.
Description: Growth inhibition of mouse BA/F3 cells expressing EGFR Del5 and Thr790Met mutant after 96 hrs by cell titer-glo assay
A short description of experiment [8]: cells. Conditions: Mus musculus, BaF3, 96 h. This is another data set of the same source.
For experiment [9], the target named is Epidermal growth factor receptor (Homo sapiens, UniProt P00533, L858R). The experiment in a line: Inhibition of EGFR Leu858Arg mutant by HTRF assay. Format: protein assay.
Sequence of Epidermal growth factor receptor (Homo sapiens, UniProt P00533, L858R) (P00533 25-1210 L858R limits assumed): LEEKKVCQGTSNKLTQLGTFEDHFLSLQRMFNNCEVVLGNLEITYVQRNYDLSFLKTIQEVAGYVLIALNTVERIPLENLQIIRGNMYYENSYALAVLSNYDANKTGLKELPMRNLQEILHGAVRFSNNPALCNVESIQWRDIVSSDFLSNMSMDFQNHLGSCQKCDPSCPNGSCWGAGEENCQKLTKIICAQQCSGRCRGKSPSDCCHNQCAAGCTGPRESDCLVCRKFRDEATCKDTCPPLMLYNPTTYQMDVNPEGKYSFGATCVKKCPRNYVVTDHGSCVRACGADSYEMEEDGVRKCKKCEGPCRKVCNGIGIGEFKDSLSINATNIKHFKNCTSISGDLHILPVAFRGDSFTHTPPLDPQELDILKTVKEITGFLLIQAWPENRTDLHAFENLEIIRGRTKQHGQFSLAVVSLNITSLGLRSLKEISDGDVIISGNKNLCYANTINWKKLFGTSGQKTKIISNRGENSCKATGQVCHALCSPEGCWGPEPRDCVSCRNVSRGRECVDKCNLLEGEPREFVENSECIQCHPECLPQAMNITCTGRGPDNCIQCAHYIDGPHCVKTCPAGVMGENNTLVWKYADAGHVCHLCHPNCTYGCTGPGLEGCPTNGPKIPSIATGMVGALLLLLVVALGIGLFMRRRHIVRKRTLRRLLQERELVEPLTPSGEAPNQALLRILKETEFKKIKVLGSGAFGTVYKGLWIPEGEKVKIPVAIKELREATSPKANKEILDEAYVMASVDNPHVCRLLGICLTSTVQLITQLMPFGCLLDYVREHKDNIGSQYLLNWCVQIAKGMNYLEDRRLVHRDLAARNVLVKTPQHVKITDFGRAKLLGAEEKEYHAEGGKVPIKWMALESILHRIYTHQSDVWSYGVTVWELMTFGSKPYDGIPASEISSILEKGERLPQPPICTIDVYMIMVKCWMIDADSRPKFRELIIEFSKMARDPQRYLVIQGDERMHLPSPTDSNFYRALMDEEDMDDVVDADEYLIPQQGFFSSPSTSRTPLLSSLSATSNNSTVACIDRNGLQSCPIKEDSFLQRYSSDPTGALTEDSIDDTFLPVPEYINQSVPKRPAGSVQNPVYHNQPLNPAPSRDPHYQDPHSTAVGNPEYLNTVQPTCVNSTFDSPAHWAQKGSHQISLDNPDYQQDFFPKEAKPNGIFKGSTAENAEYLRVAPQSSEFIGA
Experiment [10] in a line: cells. Particulars: Mus musculus, BaF3, 96 h. The source holds these as a separate data set.
Description: Growth inhibition of mouse BA/F3 cells expressing EGFR Del1 and Thr790Met mutant after 96 hrs by cell titer-glo assay
The nature of experiment [11]: cells. Conditions: Mus musculus, BaF3, 96 h. This is another data set of the same source.
Description: Growth inhibition of mouse BA/F3 cells expressing EGFR Del5 mutant after 96 hrs by cell titer-glo assay
Another experiment has as its system PC-9. The experiment in a line: Cytotoxicity against human PC9 cells expressing 746-750 sequence deleted EGFR assessed as cell viability at 0.001 to 10 uM after 96 hrs by cell titer-glo assay. In kind it is functional, cell-based. For orientation: In ATP-based viability assays light output follows the ATP content of the culture.
Experiment [12] concerns the target T1, Epidermal growth factor receptor. The experiment in a line: Inhibition of 746-750 sequence deleted EGFR autophosphorylation in human PC9 cells after 24 hrs by immunoblotting. Format: cell-based. Conditions: PC-9.
The test system of another experiment is NCI-H1975. The experiment in a line: Cytotoxicity against human NCI-H1975 cells expressing EGFR T790M and L858R mutant at 0.001 to 10 uM after 96 hrs by cell titer-glo assay. In kind it is functional, cell-based.

pIC50: −log10 of the molar value. Active and inactive are the calls of the source. No cut-off for these calls is given here.

T1 sequence (P00533 whole entry): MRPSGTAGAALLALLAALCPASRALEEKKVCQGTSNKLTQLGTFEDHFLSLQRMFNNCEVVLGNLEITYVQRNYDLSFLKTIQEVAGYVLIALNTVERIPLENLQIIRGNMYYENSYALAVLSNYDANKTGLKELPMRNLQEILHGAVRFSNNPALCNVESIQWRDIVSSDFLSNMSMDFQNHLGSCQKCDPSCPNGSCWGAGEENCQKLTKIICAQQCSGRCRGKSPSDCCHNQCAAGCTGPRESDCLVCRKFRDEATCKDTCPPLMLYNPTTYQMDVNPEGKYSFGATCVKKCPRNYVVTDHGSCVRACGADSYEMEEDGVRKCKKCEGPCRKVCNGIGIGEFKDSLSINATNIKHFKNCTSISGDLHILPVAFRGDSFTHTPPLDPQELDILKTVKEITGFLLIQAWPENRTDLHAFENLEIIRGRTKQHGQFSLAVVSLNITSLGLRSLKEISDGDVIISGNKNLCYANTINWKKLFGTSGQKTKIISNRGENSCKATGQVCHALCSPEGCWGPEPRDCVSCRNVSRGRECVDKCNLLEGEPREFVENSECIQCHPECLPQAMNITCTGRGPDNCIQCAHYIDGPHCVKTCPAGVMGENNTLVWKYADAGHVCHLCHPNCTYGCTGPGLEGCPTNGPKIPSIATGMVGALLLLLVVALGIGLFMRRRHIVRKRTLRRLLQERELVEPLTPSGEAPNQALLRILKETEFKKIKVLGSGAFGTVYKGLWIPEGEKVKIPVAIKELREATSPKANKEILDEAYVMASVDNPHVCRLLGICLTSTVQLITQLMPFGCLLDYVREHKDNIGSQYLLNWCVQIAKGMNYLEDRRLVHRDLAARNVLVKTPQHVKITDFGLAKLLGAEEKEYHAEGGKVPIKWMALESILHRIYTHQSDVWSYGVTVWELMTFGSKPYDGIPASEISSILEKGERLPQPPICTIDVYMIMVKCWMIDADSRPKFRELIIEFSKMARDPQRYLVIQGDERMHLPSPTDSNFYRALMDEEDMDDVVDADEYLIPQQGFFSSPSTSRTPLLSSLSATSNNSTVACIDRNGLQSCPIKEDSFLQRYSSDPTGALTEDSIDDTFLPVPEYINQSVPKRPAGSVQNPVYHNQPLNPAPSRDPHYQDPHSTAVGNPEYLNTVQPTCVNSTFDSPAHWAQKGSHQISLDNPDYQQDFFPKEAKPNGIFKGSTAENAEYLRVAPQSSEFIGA

With `C#Cc1cccc(Nc2ccnc3cc(OCCOC)c(OCCOC)cc23)c1`, the GI50 is greater than 500 nM in the experiment “cells [1]”; greater than 500 nM in “cells [2]”; greater than 500 nM in the experiment “cells [3]”; less than 500 nM in “cells [4]”; greater than 5000 nM in “cells [7]”; less than 500 nM in the experiment “cells [8]”. Besides, the results for the GI50 in “cells [10]” and in “cells [11]” were greater than 500 nM and greater than 5000 nM, respectively. The pIC50 is 7.52 in experiment [5], 5.82 in experiment [6] and 7.85 in [9].
Turning to `C#Cc1cccc(Nc2ccnc3cc(OC)c(OC)cc23)c1`, the GI50 was less than 500 nM in the experiment “cells [1]”; greater than 5000 nM in the experiment “cells [2]”; greater than 5000 nM in the experiment “cells [3]”; less than 500 nM in “cells [4]”; greater than 5000 nM in the experiment “cells [7]”; less than 500 nM in “cells [8]”. The GI50 in the experiment “cells [10]” is greater than 5000 nM; in “cells [11]”, less than 500 nM. For the same molecule, the negative logarithm of the IC50 (pIC50) in experiment [5] is 7.72; in [6], 5.82; in experiment [9], 8.40.
Turning to `C#Cc1cccc(Nc2ncnc3cc(OC)c(OC)cc23)c1`, the GI50 in “cells [1]” is less than 500 nM; in “cells [2]”, greater than 5000 nM; in the experiment “cells [3]” it was greater than 5000 nM; in “cells [4]”, less than 500 nM; in “cells [7]” it was greater than 5000 nM; in “cells [8]”, less than 500 nM. Also, the concentration for 50% growth inhibition (GI50) was greater than 500 nM in the experiment “cells [10]” and less than 500 nM in “cells [11]”. The values for the pIC50 in [5], in experiment [6] and in experiment [9] were greater than 9.00, 6.85 and greater than 9.00, respectively.
Regarding `C=CC(=O)Nc1ccc2ncnc(Nc3cccc(Br)c3)c2c1`, the GI50 in “cells [1]”, in the experiment “cells [2]”, in “cells [3]”, in “cells [4]”, in “cells [7]” and in the experiment “cells [8]” was less than 500 nM each time. Also, the GI50 in “cells [10]” was greater than 500 nM; in the experiment “cells [11]”, less than 500 nM.
In the case of `CCC(=O)Nc1ccc2nccc(Nc3cccc(Br)c3)c2c1`, the GI50 in the experiment “cells [1]” was less than 500 nM; in the experiment “cells [2]” it was greater than 500 nM; in the experiment “cells [3]”, greater than 500 nM; in the experiment “cells [4]”, less than 500 nM; in “cells [7]” it was greater than 500 nM; in the experiment “cells [8]”, greater than 500 nM. For the same molecule, the GI50 in “cells [10]” and in “cells [11]” was greater than 500 nM each time.
For `C=CC(=O)Nc1ccc2nccc(Nc3cccc(Br)c3)c2c1`, the GI50 in “cells [1]” was less than 500 nM; in the experiment “cells [2]” it was greater than 500 nM; in the experiment “cells [3]”, greater than 500 nM; in “cells [4]” it was less than 500 nM; in “cells [7]”, greater than 500 nM; in the experiment “cells [8]”, less than 500 nM. In addition, the GI50 in “cells [10]” was greater than 500 nM; in “cells [11]” it was less than 500 nM. In addition, the result in the experiment on PC-9 and in the experiment on NCI-H1975 was Active. Also, the Activity result in experiment [12] is “Dose-dependent effect”. The pIC50 was greater than 9.00 in experiment [5], 8.49 in experiment [6] and greater than 9.00 in [9].
Take `C#Cc1cccc(Nc2ncnc3cc(OCCOC)c(OCCOC)cc23)c1` [ERLOTINIB]: the GI50 in the experiment “cells [1]” is less than 500 nM; in the experiment “cells [2]”, greater than 5000 nM; in the experiment “cells [3]” it was greater than 5000 nM; in “cells [4]”, less than 500 nM; in the experiment “cells [7]” it was greater than 5000 nM; in the experiment “cells [8]”, less than 500 nM. The GI50 in the experiment “cells [10]” is greater than 5000 nM; in the experiment “cells [11]” it was less than 500 nM. Besides, the outcome in the experiment on PC-9 and in the experiment with NCI-H1975 was Active.
